Results on two molecules are retold here after patent publication US5462927A, “Peptides aiding nerve regeneration” (The Administrators of the Tulane Educational Fund, priority 1992, dated 1995).

The assay concerns crushed sciatic nerve. Briefly: Sensorimotor function test (sciatic nerve regeneration assay, foot-flick response to thermal pain). Format: in vivo, rat. The note with it: s.c. every 24 hr for approximately 20-25 days; head prints only 'μG/24 HRS'; vs 0.9% NaCl control. The protocol: Female, Sprague-Dawley rats (Charles River Breeding Labs) were used at an age of 7-8 weeks (120-140 g). Under ether anesthesia, the right sciatic nerve was carefully exposed and crushed with constant pressure, hemostatic forceps for 30 sec prior to closure and suturing of the incision. After surgery, the animals were randomly assigned to treatment groups of 10. The test peptides were administered s.c. in 0.9% NaCl in a vol of 0.1 ml. NaCl (0.9%) served as the control. Injections were started immediately after surgery and given every 24 hr thereafter for approximately 20-25 days. The criterion of sciatic nerve regeneration was based on the recovery of the foot-flick response to thermal pain. Beginning 48 hr after surgery, the rats were tested five days a week for the ability to withdraw, from a heat source, the paw innervated by the crushed nerve. All sensorimotor testing was performed between 1:00 and 3:00 p.m. Specifically, the rat was immobilized by wrapping in a towel, and the sole of the lesioned limb was placed over the aperture of a modified d'Amour apparatus. The time required to withdraw the foot was recorded to the nearest 0.1 of sec using a digital stopwatch. If no response occurred by 5 sec, the test was terminated to avoid tissue damage. The observe measuring the foot-flick response was blind to the treatment group being tested. All animals were acclimatized to the testing procedure prior to surgery. Baseline values were obtained by determining the response time for the unlesioned limb.

Ends that are not written are not given here.

Turning to “AQYFRWG-NH2 [BIM-22016, L--Ala--Gln--Tyr--Phe--Arg--Trp--Gly--NH2]”, the “% Reduction of Recovery Time” value was 13%. With `CCCC[C@H](N)C(=O)N[C@@H](CCC(N)=O)C(=O)N[C@@H](Cc1c[nH]cn1)C(=O)N[C@@H](Cc1ccccc1)C(=O)N[C@@H](CCCNC(=N)N)C(=O)N[C@@H](Cc1c[nH]c2ccccc12)C(=O)NCC(N)=O` [BIM-22010, NLeu--Gln--His--Phe--Arg--Trp--Gly--NH2], the “% Reduction of Recovery Time” value came to 13%.
